Numbers after ± are expanded uncertainties.
Details: 101.33 kPa, Crystal 2, Small (less than 1 g) adiabatic calorimetry

Compound: O=S(=O)([O-])[O-].[Sr+2] [sulfuric acid, strontium salt (1:1)]
- molar entropy (5 K): 0.01272 J/K/mol
- molar entropy (10 K): 0.1188 ± 0.033 J/K/mol
- molar entropy (15 K): 0.4903 ± 0.04 J/K/mol
- molar entropy (20 K): 1.25 ± 0.053 J/K/mol
- molar entropy (25 K): 2.413 ± 0.066 J/K/mol
- molar entropy (30 K): 3.947 ± 0.18 J/K/mol
- molar entropy (35 K): 5.8 ± 0.19 J/K/mol
- molar entropy (40 K): 7.917 ± 0.21 J/K/mol
- molar entropy (45 K): 10.25 ± 0.23 J/K/mol
- molar entropy (50 K): 12.75 ± 0.25 J/K/mol
- molar entropy (55 K): 15.38 ± 0.27 J/K/mol
- molar entropy (60 K): 18.11 ± 0.29 J/K/mol
- molar entropy (65 K): 20.88 ± 0.31 J/K/mol
- molar entropy (70 K): 23.69 ± 0.33 J/K/mol
- molar entropy (75 K): 26.51 ± 0.35 J/K/mol
- molar entropy (80 K): 29.33 ± 0.37 J/K/mol
- molar entropy (85 K): 32.13 ± 0.39 J/K/mol
- molar entropy (90 K): 34.9 ± 0.51 J/K/mol
- molar entropy (95 K): 37.65 ± 0.53 J/K/mol
- molar entropy (100 K): 40.36 ± 0.54 J/K/mol
- molar entropy (110 K): 45.67 ± 0.57 J/K/mol
- molar entropy (120 K): 50.82 ± 0.61 J/K/mol
- molar entropy (130 K): 55.82 ± 0.64 J/K/mol
- molar entropy (140 K): 60.67 ± 0.66 J/K/mol
- molar entropy (150 K): 65.39 ± 0.69 J/K/mol
- molar entropy (160 K): 69.99 ± 0.72 J/K/mol
- molar entropy (170 K): 74.46 ± 0.75 J/K/mol
- molar entropy (180 K): 78.81 ± 0.77 J/K/mol
- molar entropy (190 K): 83.06 ± 0.8 J/K/mol
- molar entropy (200 K): 87.2 ± 0.82 J/K/mol
- molar entropy (210 K): 91.24 ± 0.85 J/K/mol
- molar entropy (220 K): 95.18 ± 0.87 J/K/mol
- molar entropy (230 K): 99.04 ± 0.89 J/K/mol
- molar entropy (240 K): 102.82 ± 0.92 J/K/mol
- molar entropy (250 K): 106.52 ± 0.94 J/K/mol
- molar entropy (260 K): 110.15 ± 0.96 J/K/mol
- molar entropy (270 K): 113.73 ± 0.98 J/K/mol
- molar entropy (273.15 K): 114.84 ± 0.99 J/K/mol
- molar entropy (280 K): 117.23 ± 1 J/K/mol
- molar entropy (290 K): 120.68 ± 1 J/K/mol
- molar entropy (298.15 K): 123.44 ± 1 J/K/mol
- molar entropy (300 K): 124.06 ± 1 J/K/mol
- molar entropy (310 K): 127.38 ± 1.1 J/K/mol
- molar entropy (320 K): 130.64 ± 1.1 J/K/mol

— the NIST ThermoML archive (doi:10.1016/j.tca.2013.05.017)
